# Test results from ChEMBL document CHEMBL4219126, “Synthesis and biological evaluation of benzocyclobutane-C-glycosides as potent and orally active SGLT1/SGLT2 dual inhibitors” (Bioorg Med Chem Lett, 2018).
# Calls of active or inactive are those of the source. No cut-off for these calls is given here.
# Experiments:
# [1] = target: T1, Sodium/glucose cotransporter 1 (Homo sapiens) (UniProt P13866); assay: Inhibition of human small intestinal SGLT1 expressed in CHOK1 cells assessed as decrease in [14C]-AMG uptake at 300 nM preincubated for 10 mins followed by [14C]-AMG addition and measured after 2 hrs by TopCount method relative to control; format: cell-based
# T1 sequence (whole entry): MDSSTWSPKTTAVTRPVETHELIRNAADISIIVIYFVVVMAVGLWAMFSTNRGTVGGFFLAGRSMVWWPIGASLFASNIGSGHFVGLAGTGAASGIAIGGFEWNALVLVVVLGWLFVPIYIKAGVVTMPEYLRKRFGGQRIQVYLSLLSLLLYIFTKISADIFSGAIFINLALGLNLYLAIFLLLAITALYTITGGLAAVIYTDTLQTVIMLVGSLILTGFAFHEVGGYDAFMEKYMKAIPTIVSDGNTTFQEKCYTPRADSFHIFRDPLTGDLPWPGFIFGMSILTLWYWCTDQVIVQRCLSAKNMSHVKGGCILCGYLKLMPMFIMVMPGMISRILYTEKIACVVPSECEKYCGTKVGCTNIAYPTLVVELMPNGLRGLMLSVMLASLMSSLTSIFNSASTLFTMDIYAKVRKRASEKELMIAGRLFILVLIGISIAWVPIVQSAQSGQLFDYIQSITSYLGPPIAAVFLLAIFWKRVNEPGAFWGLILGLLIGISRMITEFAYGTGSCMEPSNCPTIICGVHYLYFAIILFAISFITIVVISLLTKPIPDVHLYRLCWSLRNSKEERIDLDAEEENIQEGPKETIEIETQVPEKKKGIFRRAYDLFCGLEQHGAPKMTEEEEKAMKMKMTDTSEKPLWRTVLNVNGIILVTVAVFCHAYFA
# [2] = target: T2, Sodium/glucose cotransporter 2 (Homo sapiens) (UniProt P31639); assay: Inhibition of human kidney SGLT2 expressed in CHOK1 cells assessed as decrease in [14C]-AMG uptake at 30 nM preincubated for 10 mins followed by [14C]-AMG addition and measured after 2 hrs by TopCount method relative to control; format: cell-based
# T2 sequence (whole entry): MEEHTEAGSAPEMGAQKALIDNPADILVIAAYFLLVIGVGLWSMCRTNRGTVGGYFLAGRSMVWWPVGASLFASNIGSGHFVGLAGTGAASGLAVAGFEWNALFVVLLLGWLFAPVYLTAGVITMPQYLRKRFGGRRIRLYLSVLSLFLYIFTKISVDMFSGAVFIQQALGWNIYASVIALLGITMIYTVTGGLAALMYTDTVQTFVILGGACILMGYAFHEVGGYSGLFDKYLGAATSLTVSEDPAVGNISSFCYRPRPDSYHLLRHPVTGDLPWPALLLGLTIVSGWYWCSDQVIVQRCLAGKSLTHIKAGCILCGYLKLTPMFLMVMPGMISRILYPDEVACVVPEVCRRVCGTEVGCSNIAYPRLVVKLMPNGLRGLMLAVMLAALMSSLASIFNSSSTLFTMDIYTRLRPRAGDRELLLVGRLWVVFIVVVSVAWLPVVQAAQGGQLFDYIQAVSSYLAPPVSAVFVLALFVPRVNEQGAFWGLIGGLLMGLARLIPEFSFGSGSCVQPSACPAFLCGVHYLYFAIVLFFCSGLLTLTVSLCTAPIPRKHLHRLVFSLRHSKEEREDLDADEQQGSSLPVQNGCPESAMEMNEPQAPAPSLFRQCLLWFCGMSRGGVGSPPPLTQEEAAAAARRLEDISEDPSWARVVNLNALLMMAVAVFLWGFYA
# [3] = Cmax in mouse at 5 mg/kg, iv; format: ADME, organism-based; set-up: dose 5 mg/kg, route intravenous; details: in vivo
# [4] = Cmax in mouse at 20 mg/kg administered via oral gavage; format: ADME, organism-based; set-up: dose 20 mg/kg, route oral; details: in vivo
# [5] = Terminal half life in mouse at 5 mg/kg, iv; format: ADME, organism-based; details: in vivo, read-out: beta t1/2 (converted)
# [6] = Terminal half life in mouse at 20 mg/kg administered via oral gavage; format: ADME, organism-based; details: in vivo, read-out: beta t1/2 (converted)
# [7] = AUC (infinity) in mouse at 5 mg/kg, iv; format: ADME, organism-based; set-up: dose 5 mg/kg, time infinity, route intravenous; details: in vivo
# [8] = AUC (infinity) in mouse at 20 mg/kg administered via oral gavage; format: ADME, organism-based; set-up: dose 20 mg/kg, route oral, time infinity; details: in vivo
# [9] = Volume of distribution at steady state in mouse at 5 mg/kg, iv; format: ADME, organism-based; details: in vivo, read-out: Vdss
# [10] = Systemic clearance in mouse at 5 mg/kg, iv; format: ADME, organism-based; details: in vivo
# [11] = Oral bioavailability in mouse at 20 mg/kg; format: ADME, organism-based; details: in vivo
# [12] = Cmax in rat at 2 mg/kg, iv; format: ADME, organism-based; set-up: dose 2 mg/kg, route intravenous; details: in vivo
# [13] = Cmax in rat at 10 mg/kg administered via oral gavage; format: ADME, organism-based; set-up: dose 10 mg/kg, route oral; details: in vivo
# [14] = Terminal half life in rat at 2 mg/kg, iv; format: ADME, organism-based; details: in vivo, read-out: beta t1/2 (converted)
# [15] = Terminal half life in rat at 10 mg/kg administered via oral gavage; format: ADME, organism-based; details: in vivo, read-out: beta t1/2 (converted)
# [16] = AUC (infinity) in rat at 2 mg/kg, iv; format: ADME, organism-based; set-up: dose 2 mg/kg, time infinity, route intravenous; details: in vivo
# [17] = AUC (infinity) in rat at 10 mg/kg administered via oral gavage; format: ADME, organism-based; set-up: dose 10 mg/kg, route oral, time infinity; details: in vivo
# [18] = Volume of distribution at steady state in rat at 2 mg/kg, iv; format: ADME, organism-based; details: in vivo, read-out: Vdss
# [19] = Systemic clearance in rat at 2 mg/kg, iv; format: ADME, organism-based; details: in vivo
# [20] = Oral bioavailability in rat at 10 mg/kg; format: ADME, organism-based; details: in vivo
# Rattus norvegicus [21] = assay: Antidiabetic activity in Sprague-Dawley rat assessed as decrease in plasma glucose AUC (0 to 120 mins) administered 1 hr prior to U13C6-glucose challenge by OGTT; format: functional, organism-based
# Rattus norvegicus [22] = assay: Antidiabetic activity in Sprague-Dawley rat assessed as increase in urinary glucose excrection administered 1 hr prior to U13C6-glucose challenge measured up to 4 hrs by OGTT; format: functional, organism-based
# [23] = Cmax in dog at 2 mg/kg, iv; format: ADME, organism-based, Canis lupus familiaris; set-up: dose 2 mg/kg, route intravenous; details: in vivo
# [24] = Cmax in dog at 10 mg/kg administered via oral gavage; format: ADME, organism-based, Canis lupus familiaris; set-up: dose 10 mg/kg, route oral; details: in vivo
# [25] = Terminal half life in dog at 2 mg/kg, iv; format: ADME, organism-based, Canis lupus familiaris; details: in vivo, read-out: beta t1/2 (converted)
# [26] = Terminal half life in dog at 10 mg/kg administered via oral gavage; format: ADME, organism-based, Canis lupus familiaris; details: in vivo, read-out: beta t1/2 (converted)
# [27] = AUC (infinity) in dog at 2 mg/kg, iv; format: ADME, organism-based, Canis lupus familiaris; set-up: dose 2 mg/kg, time infinity, route intravenous; details: in vivo
# [28] = AUC (infinity) in dog at 10 mg/kg administered via oral gavage; format: ADME, organism-based, Canis lupus familiaris; set-up: dose 10 mg/kg, route oral, time infinity; details: in vivo
# [29] = Volume of distribution at steady state in dog at 2 mg/kg, iv; format: ADME, organism-based, Canis lupus familiaris; details: in vivo, read-out: Vdss
# [30] = Systemic clearance in dog at 2 mg/kg, iv; format: ADME, organism-based, Canis lupus familiaris; details: in vivo
# [31] = Oral bioavailability in dog at 10 mg/kg; format: ADME, organism-based, Canis lupus familiaris; details: in vivo
# [32] = Cmax in monkey at 2 mg/kg, iv; format: ADME, organism-based, Macaca mulatta; set-up: dose 2 mg/kg, route intravenous; details: rhesus monkey, in vivo
# [33] = Cmax in monkey at 10 mg/kg administered via oral gavage; format: ADME, organism-based, Macaca mulatta; set-up: dose 10 mg/kg, route oral; details: rhesus monkey, in vivo
# [34] = Terminal half life in monkey at 2 mg/kg, iv; format: ADME, organism-based, Macaca mulatta; details: rhesus monkey, in vivo, read-out: beta t1/2 (converted)
# [35] = Terminal half life in monkey at 10 mg/kg administered via oral gavage; format: ADME, organism-based, Macaca mulatta; details: rhesus monkey, in vivo, read-out: beta t1/2 (converted)
# [36] = AUC (infinity) in monkey at 2 mg/kg, iv; format: ADME, organism-based, Macaca mulatta; set-up: dose 2 mg/kg, route intravenous, time infinity; details: rhesus monkey, in vivo
# [37] = AUC (infinity) in monkey at 10 mg/kg administered via oral gavage; format: ADME, organism-based, Macaca mulatta; set-up: dose 10 mg/kg, time infinity, route oral; details: rhesus monkey, in vivo
# [38] = Volume of distribution at steady state in monkey at 2 mg/kg, iv; format: ADME, organism-based, Macaca mulatta; details: rhesus monkey, in vivo, read-out: Vdss
# [39] = Systemic clearance in monkey at 2 mg/kg, iv; format: ADME, organism-based, Macaca mulatta; details: rhesus monkey, in vivo
# [40] = Oral bioavailability in monkey at 10 mg/kg; format: ADME, organism-based, Macaca mulatta; details: rhesus monkey, in vivo
# Rattus norvegicus [41] = assay: Antidiabetic activity in Sprague-Dawley rat assessed as decrease in postprandial blood glucose level administered 1 hr prior to glucose challenge measured up to 120 mins by OGTT; format: functional, organism-based
# Rattus norvegicus [42] = assay: Antihyperglycemic activity in diabetic ZDF rat assessed as decrease in fed blood glucose levels at 10 mg/kg measured up to 24 hrs; format: functional, organism-based
Compound,inhibition [1] [%],inhibition [2] [%],Cmax [3] [ng/mL],Cmax [4] [ng/mL],half-life [5] [h],half-life [6] [h],AUC(0-inf) [7] [ng·h/mL],AUC(0-inf) [8] [ng·h/mL],Vd [9] [L/kg],clearance [10] [mL/min/kg],bioavailability [11] [%],Cmax [12] [ng/mL],Cmax [13] [ng/mL],half-life [14] [h],half-life [15] [h],AUC(0-inf) [16] [ng·h/mL],AUC(0-inf) [17] [ng·h/mL],Vd [18] [L/kg],clearance [19] [mL/min/kg],bioavailability [20] [%],also measured
N#Cc1ccc([C@@H]2O[C@H](CO)[C@@H](O)[C@H](O)[C@H]2O)cc1Cc1ccc2c(c1)CC2,0,43,–,–,–,–,–,–,–,–,–,–,–,–,–,–,–,–,–,–,–
CN(C)c1ccc([C@@H]2O[C@H](CO)[C@@H](O)[C@H](O)[C@H]2O)cc1Cc1ccc2c(c1)CC2,67,35,–,–,–,–,–,–,–,–,–,–,–,–,–,–,–,–,–,–,–
Cc1cc(O)c([C@@H]2O[C@H](CO)[C@@H](O)[C@H](O)[C@H]2O)cc1Cc1ccc2c(c1)CC2,–,–,8200,4760,1.25,2.68,4560,11500,1.06,18.3,62.8,2110,717,1.27,2.22,697,1790,2.18,47.8,49,Activity (Rattus norvegicus [21]): Dose-dependent effect; Activity (Rattus norvegicus [22]): Dose-dependent effect
OC[C@H]1O[C@@H](c2ccc(Cl)c(Cc3ccc4c(c3)CC4)c2)[C@H](O)[C@@H](O)[C@@H]1O,–,–,5870,5680,2.42,3.29,6390,25500,2.19,13,99,1110,634,2.17,2.48,697,2650,4.01,48.3,78,Cmax [23]: 9600 ng/mL; Cmax [24]: 20100 ng/mL; half-life [25]: 7.93 h; half-life [26]: 12.8 h; AUC(0-inf) [27]: 50800 ng·h/mL; AUC(0-inf) [28]: 332000 ng·h/mL; Vd [29]: 0.4 L/kg; clearance [30]: 0.68 mL/min/kg; bioavailability [31]: 107%; Cmax [32]: 9110 ng/mL; Cmax [33]: 7180 ng/mL; half-life [34]: 4.71 h; half-life [35]: 4.45 h; AUC(0-inf) [36]: 9210 ng·h/mL; AUC(0-inf) [37]: 40500 ng·h/mL; Vd [38]: 0.91 L/kg; clearance [39]: 3.74 mL/min/kg; bioavailability [40]: 88%; Activity (Rattus norvegicus [41]): Active; Activity (Rattus norvegicus [42]): Active
OC[C@H]1O[C@@H](c2cccc(Cc3ccc4c(c3)CC4)c2)[C@H](O)[C@@H](O)[C@@H]1O,5,23,–,–,–,–,–,–,–,–,–,–,–,–,–,–,–,–,–,–,–
COc1cc(C2CC2)c(Cc2ccc3c(c2)CC3)cc1[C@@H]1O[C@H](CO)[C@@H](O)[C@H](O)[C@H]1O,67,31,–,–,–,–,–,–,–,–,–,–,–,–,–,–,–,–,–,–,–
